According to publication PMC5428013, “Peptide-Au Clusters Induced Tumor Cells Apoptosis via Targeting Glutathione Peroxidase-1: The Molecular Dynamics Assisted Experimental Studies” (Scientific Reports, 2017):
Entries after “also recorded” stand apart in the source; their conditions may differ.

Experiments:
A549 cells [1] = test: Apoptosis evaluation, Annexin V-FITC/PI dual staining; assay type: cell-based, human; settings: 48 h
Experimental: Apoptosis detection with Annexin V-FITC/PI fluorescence dual staining was carried out by flow cytometry. Briefly, about 2 mL of 1 × 10^5 cells/mL of A549 cells were seeded in 6-well plate for 24 h before treatment with Au25P1_9 at different Au doses. The cells were treated with Au25P1_9 (Au dose at 0, 100, 200, 400 and 800 μM) for 48 h, respectively. Then culture medium and cells in each well were collected and centrifuged at 1200 rpm for 3 min. The supernatant was discarded and the cells were washed twice with PBS. 195 μL Annexin V-FITC binding buffer was added to re-suspend the cells at a dose of ~5 × 10^5 cells/mL in 1.5 mL Eppendorf tube. 5 μL Annexin V-FITC and 10 μL PI stains were added into each cell suspension, respectively. The tubes were incubated at room temperature under darkness for exactly 15 min. The fluorescence of the cells was determined immediately with flow cytometer. Cells at the early stage of apoptotic process were stained with the Annexin V-FITC alone. Necrotic cells were stained by both the Annexin V-FITC and PI. […] So, the percentage of apoptotic and necrosis cells can be analyzed by Cflow software.

caspase-3 = test: Caspase-3 activity assay (Nucview488, CLSM); assay type: cell-based, human; settings: 800 µM Au, 48 h, 5 µM Nucview488 substrate
Experimental: A549 cells were seeded on glass-bottom dishes for 24 h, and the Au25P1_9 was added to culture medium and final Au dose was 800 µM. A549 cells were next exposed to Au25P1_9 for 48 h. Then the cells were washed three times with PBS and incubated with 5 µM Nucview488 caspase-3 substrate (which can be cleaved by caspase-3 and release the DNA dye to stain DNA with bright green fluorescence during apoptosis) at room temperature for 30 min. Finally, cells were washed with PBS and observed by CLSM with excitation at wavelengths of 488 nm.

Hela cells = test: Cell viability assay (CCK-8), Hela; assay type: cell-based; settings: same condition as A549
Experimental: (§1) Briefly, cells were prior cultured on 96-well plates (at the density of 5 × 10^3 cells/well) for 24 h to allow cells attachment. The cells were treated with different doses of these free peptides (0, 1, 4, 16, 64, 256, 1024 µM) and peptide-Au clusters (0, 50, 100, 200, 400, 800 µM in Au dose) for 48 h, respectively. The cells were washed three times with PBS and then incubated with fresh growth medium containing 10% (v/v) CCK-8 reagent for 1 h at 37 °C for cell viability assay. The absorbance was measured at 450 nm by using a microplate reader (SpectraMAX M2, Sunnyvale, California). Cell viability of untreated cells was set as 100%, and that of treated cells were expressed as a relative percentage of untreated cells. All data were shown as mean percentages ± standard deviation from three independent experiments.

GPx-1 [2] = test: Cellular GPx-1 activity in treated A549 cells; assay type: cell-based, human; settings: 48 h
Experimental: A549 cells were prior seeded on 6-well plate (at the density of 1 × 10^5 cells/well) for 24 h. Then the medium was discarded and fresh culture medium with Au25P1_9 at different doses was added to make cells exposed to final Au doses at 0, 100, 200, 400 and 800 μM, respectively. After another 48 h incubation, the cells were washed thrice with PBS and lysed by cell lysis buffer containing 1 mM PMSF for 15 min on a shaker at 4 °C. The lysed cells were collected and centrifuged for 20 min at 12,000 g to get total protein of cells. The protein dose of each sample was quantified by BCA Protein Assay Kit and the GPx-1 activity of peptide-Au clusters treated A549 cells was measured by GPx Activity Colorimetric Assay Kit, respectively. For the control experiments, a series of Au doses of Au25P1_9 at 0, 5, 25, 100, 400 μM were incubated with the GPx-1 containing cell lysate of A549 cells for 10 min and the GPx-1 activity of theses samples was also measured. The GPx-1 activity of untreated samples was set as 100%, and that of peptide-Au clusters treated samples were expressed as a relative percentage of untreated ones.

GPx-1 [3] = test: GPx-1 expression in A549 cells, western blotting; assay type: cell-based, human; settings: Au dose 0, 100, 200, 400, 800 μM, 48 h
Experimental: The expression of GPx-1, caspase-3 and PARP from Au25P1_9 treated A549 cells were analyzed by western blotting. A549 cells were prior seeded on 6-well plate (at the density of 1 × 10^5 cells/well) for 24 h. Then the medium was discarded and fresh culture medium with Au25P1_9 at different doses was added to make cells exposed to final Au doses at 0, 100, 200, 400 and 800 μM, respectively. After another 48 h incubation, the cells were harvested and lysed by cell lysis buffer for Western and IP (containing 20 mM Tris-HCl, pH7.5, 150 mM NaCl, 1% Triton X-100, sodium pyrophosphate, β-glycerophosphate, EDTA, Na3VO4 and leupeptin), protease inhibitor cocktail tablet and 1 mM PMSF for 15 min on a shaker at 4 °C. The lysed cells were collected and centrifuged for 15 min at 12,000 g to get total protein of cells. The protein dose of each sample was prior quantified, and then loading buffer was added. After boiling for 5 min, the protein samples with equal amount were separated on 12% SDS polyacrylamide gel electrophoresis and then transferred onto the polyvinylidene difluoride (PVDF) membrane. Membrane was blocked by 5% nonfat dried milk prepared in tris(hydroxymethyl)amin omethane-NaCl-Tween 20 (TBST) at room temperature for 1 h, and then incubated with primary antibodies specific to β-actin, Caspase-3, PARP and GPx-1 at 4 °C overnight, respectively. […]

A549 cells [4] = test: Mitochondrial membrane potential assay (JC-1); assay type: cell-based, human; settings: 800 µM Au, 48 h, JC-1, CLSM
Experimental: Disruption of ΔΨm is an important step in the induction of cellular apoptosis. JC-1, a sensitive mitochondrial dye, was used to evaluate the ΔΨm. JC-1 can aggregates in the mitochondrial matrix to yield red fluorescence (λem = 590 nm) at high mitochondrial membrane potential, while JC-1 monomer has green fluorescence at low mitochondrial membrane potential (λem = 527 nm). Therefore, using JC-1 easily signals the loss of ΔΨm, an event of early cell apoptosis. After treated with 800 µM of Au25P1_9 for 48 h on glass-bottom dish, cells were stained with JC-1 at 37 °C for 20 min under darkness. Then, cells were washed twice with cold buffer solution and JC-1 fluorescence inside cells was immediately observed by CLSM.

A549 cells [5] = test: Cell viability assay (CCK-8), A549; assay type: cell-based, human; settings: 48 h; for cell viability suppression by peptide-Au clusters (words): A549, Au dose 0, 50, 100, 200, 400, 800 µM
Experimental: as §1

## CCYGGPEEEEEVG [Au25P1_9, Au25 cluster coated by nine P1 peptides (…)]
A549 cells [1]; A549, Au25P1_9 dose 100 μM (Au)
  cell apoptosis ratio: 5.8%
A549 cells [1]; A549, Au25P1_9 dose 800 μM (Au)
  cell apoptosis ratio: 15.2%
A549 cells [1]; A549, Au dose 0, 100, 200, 400, 800 μM
  cell apoptosis dose dependence: dose-dependent manner
caspase-3
  caspase-3 activation: strong Nucview488 emission
Hela cells
  change of cell viability: almost negligible
GPx-1 [2]; 800 μM of Au
  cellular GPx-1 activity (relative to untreated = 100%): 27%
GPx-1 [2]; Au dose 0, 100, 200, 400, 800 μM
  cellular GPx-1 activity: significantly decreases as Au25P1_9 dose increase; also recorded: the most effective candidate for suppression of GPx-1 activity in buffer and cells
GPx-1 [3]
  GPx-1 expression level: GPx-1 level remains stable
A549 cells [4]
  mitochondrial membrane potential change: a red to green emission shift can be observed in most cells after treated with Au25P1_9, indicating mitochondria depolarization
A549 cells [5]
  cell viability suppression by peptide-Au clusters (words): can suppress cell viability
A549 cells [5]; listed as Au25P19
  cell viability suppression by peptide-Au clusters (words): exhibits the best suppression capacity for A549 cell viability
A549 cells [5]; A549, Au dose of 800 μM, CCK-8, mean from three independent experiments
  cell viability (relative to untreated = 100%): 40%
